Reference: patent US20120034613A1, “Apparatus and Method for Testing Relationships Between Gene Expression and Physical Appearance of Skin” (NSE Products, Inc., priority 2010, published 2012)

System: EpidermFT™ Skin Model (EFT-400) full thickness skin cultures
Experiment: Affymetrix GeneChip HG U133 Plus 2.0 microarray global gene expression, agent-exposed vs untreated skin cultures
Assay type: cell-based, human
Settings: Salicin 0.5% vs Untreated Control

OCc1ccccc1O[C@@H]1O[C@H](CO)[C@@H](O)[C@H](O)[C@H]1O [Salicin, 2-(Hydroxymethyl)phenyl β-D-glucospyranoside]
Direction KLK1 (216699_s_at) (24 hr): down | Direction KRT5 (201820_at) (24 hr): down | Direction KRT6A (209125_at) (24 hr): down | Direction KRT10 (207023_x_at) (24 hr): down | Direction KRTCAP3 (235148_at) (24 hr): down | Direction LMNA (212089_at) (24 hr): down | Direction LMNA (1554600_s_at) (24 hr): down | Direction LMNB1 (203276_at) (24 hr): down | Direction LOC284837 (1563088_a_at) (24 hr): down | Direction LOC286440 (209733_at) (24 hr): down | Direction LOC400027 (226413_at) (24 hr): down | Direction LOC401233 (1558882_at) (24 hr): down | Direction LOC648245 (227739_at) (24 hr): down | Direction LOC652968 (233528_s_at) (24 hr): down | Direction LOC727820 (227384_s_at) (24 hr): down | Direction LOC100128443 /// MAST4 (210958_s_at) (24 hr): down | Direction LOC100128822 (235174_s_at) (24 hr): down | Direction LOC100130837 (242255_at) (24 hr): down | Direction LOC100131262 (1558152_at) (24 hr): down | Direction LOC100131851 /// LOC100134497 /// LOC401002 /// LOC646674 /// SSBP3 (222482_at) (24 hr): down | Direction LOC100133772 /// SLC16A5 (206600_s_at) (24 hr): down | Direction LOC100134937 (229685_at) (24 hr): down | Direction LPHN1 (47560_at) (24 hr): down | Direction LY75 (205668_at) (24 hr): down | Direction LYSMD4 (228954_at) (24 hr): down | Direction MAFB (218559_s_at) (24 hr): down | Direction MAPRE2 (202501_at) (24 hr): down | Direction MEGF9 (212831_at) (24 hr): down | Direction MFAP5 (213764_s_at) (24 hr): down | Direction MIB2 (226644_at) (24 hr): down | Direction MPP7 (238451_at) (24 hr): down | Direction MTHFR (226929_at) (24 hr): down | Direction MTMR1 (214975_s_at) (24 hr): down | Direction MUC1 (213693_s_at) (24 hr): down | Direction MYO18A /// TIAF1 (202039_at) (24 hr): down | Direction NBEAL2 (212443_at) (24 hr): down | Direction NCF2 (209949_at) (24 hr): down | Direction NCRNA00086 (238697_at) (24 hr): down | Direction PAIP1 (208051_s_at) (24 hr): down | Direction PAIP2B (221868_at) (24 hr): down | Direction PAWR (204005_s_at) (24 hr): down | Direction PAWR (229515_at) (24 hr): down | Direction PDIK1L (227255_at) (24 hr): down | Direction PERP (217744_s_at) (24 hr): down | Direction PIGW (1558292_s_at) (24 hr): down | Direction PLEKHA2 (225136_at) (24 hr): down | Direction PLS3 (201215_at) (24 hr): down | Direction PNMA2 (209598_at) (24 hr): down | Direction POLE2 (205909_at) (24 hr): down | Direction POLH (231115_at) (24 hr): down | Direction POLR3B (219459_at) (24 hr): down | Direction POU3F1 (208345_s_at) (24 hr): down | Direction PPAP2C (209529_at) (24 hr): down | Direction PPP1CB (201409_s_at) (24 hr): down | Direction PPP2CA (208652_at) (24 hr): down | Direction PRDX2 (39729_at) (24 hr): down | Direction PRKX (204061_at) (24 hr): down | Direction PTCH1 (209815_at) (24 hr): down | Direction PTGFR (1555097_a_at) (24 hr): down | Direction PVRL1 (225211_at) (24 hr): down | Direction RAB7B (1553982_a_at) (24 hr): down | Direction RAPGEFL1 (218657_at) (24 hr): down | Direction RHOV (241990_at) (24 hr): down | Direction RICS (203431_s_at) (24 hr): down | Direction RNF170 (226104_at) (24 hr): down | Direction RORA (235567_at) (24 hr): down | Direction RPS6KA5 (204633_s_at) (24 hr): down | Direction RPS6KB2 (203777_s_at) (24 hr): down | Direction SCRN3 (222849_s_at) (24 hr): down | Direction SDCCAG8 (243963_at) (24 hr): down | Direction SEMA4D (203528_at) (24 hr): down | Direction SERPINB1 (213572_s_at) (24 hr): down | Direction SETBP1 (227478_at) (24 hr): down | Direction SHROOM2 (204967_at) (24 hr): down | Direction SLC5A3 (212944_at) (24 hr): down | Direction SLC24A3 (219090_at) (24 hr): down | Direction SLC45A4 (225598_at) (24 hr): down | Direction SLCO3A1 (219229_at) (24 hr): down | Direction SMAP2 (225282_at) (24 hr): down | Direction SMCR7 (235896_s_at) (24 hr): down | Direction SNX21 (1553960_at) (24 hr): down | Direction SNX24 (218705_s_at) (24 hr): down | Direction SORD (201563_at) (24 hr): down | Direction ST8SIA4 (230836_at) (24 hr): down | Direction STK24 (208854_s_at) (24 hr): down | Direction SYNGR2 (201079_at) (24 hr): down | Direction TANC1 (225308_s_at) (24 hr): down | Direction TCEA3 (226388_at) (24 hr): down | Direction TCHP (223455_at) (24 hr): down | Direction TGOLN2 (1554608_at) (24 hr): down | Direction THBD (203888_at) (24 hr): down | Direction TIMM22 (219184_x_at) (24 hr): down | Direction TMC5 (222904_s_at) (24 hr): down | Direction TMEM19 (226860_at) (24 hr): down | Direction TMEM45A (219410_at) (24 hr): down | Direction TMEM50B (225182_at) (24 hr): down | Direction TMEM80 (65630_at) (24 hr): down | Direction TP53I3 (210609_s_at) (24 hr): down | Direction TRAF3IP2 (202987_at) (24 hr): down | Direction TRIM2 (202342_s_at) (24 hr): down | Direction TTC30B (1554588_a_at) (24 hr): down | Direction VPS4B (218171_at) (24 hr): down | Direction WNK1 (39313_at) (24 hr): down | Direction WNK1 (211993_at) (24 hr): down | Direction ZBTB1 (1557036_at) (24 hr): down | Direction ZDHHC21 (241946_at) (24 hr): down | Direction ZFYVE21 (219929_s_at) (24 hr): down | Direction ZHX1 (223213_s_at) (24 hr): down | Direction ZHX1 (223214_s_at) (24 hr): down | Direction ZNF85 (1554445_at) (24 hr): down | Direction ZNF561 (235200_at) (24 hr): down | Direction ZNF589 (219968_at) (24 hr): down | Direction ZNF823 (229732_at) (24 hr): down | Direction ABHD2 (205566_at) (24 hr treatment): up
